Changes are numbered by the printed parent chain.

The target in assay [1] is T1, RlmI (Escherichia coli, UniProt P75876, R64A).
T1 construct: pCA24N or pGEX4T-1 plasmid; His tag detected by anti-His; purified
T1 sequence (P75876 1-396 R64A): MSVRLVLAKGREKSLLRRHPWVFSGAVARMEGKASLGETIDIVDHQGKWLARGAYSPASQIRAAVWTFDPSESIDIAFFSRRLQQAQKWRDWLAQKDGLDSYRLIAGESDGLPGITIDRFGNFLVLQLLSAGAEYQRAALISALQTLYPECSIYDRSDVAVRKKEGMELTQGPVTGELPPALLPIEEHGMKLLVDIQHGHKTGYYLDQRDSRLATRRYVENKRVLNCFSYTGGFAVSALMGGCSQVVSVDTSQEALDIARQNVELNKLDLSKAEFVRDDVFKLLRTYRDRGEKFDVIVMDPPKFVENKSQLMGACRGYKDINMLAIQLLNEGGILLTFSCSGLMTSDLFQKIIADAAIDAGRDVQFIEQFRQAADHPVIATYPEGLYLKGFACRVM
The experiment in a line: ITC. It is filed as binding.

For assay [2], the target named is T2, RlmI (Escherichia coli, UniProt P75876).
T2 construct: pCA24N or pGEX4T-1 plasmid; His tag detected by anti-His; purified
T2 sequence (P75876 1-396): T1 sequence (P75876 1-396 R64A) with A64R
In words: ITC. It is filed as binding.

Assay [3] addresses T3, RlmI (Escherichia coli, UniProt P75876, K201A).
T3 construct: pCA24N or pGEX4T-1 plasmid; His tag detected by anti-His; purified
T3 sequence (P75876 1-396 K201A): T1 sequence (P75876 1-396 R64A) with A64R, K201A
The experiment in a line: ITC. It is filed as binding.

Assay [4] deals with T2, RlmI. In words: in vitro rRNA methylation, HPLC. It is filed as biochemical.
Assay [5] deals with T4, RlmI (Escherichia coli, UniProt P75876, R103A).
T4 construct: pCA24N or pGEX4T-1 plasmid; His tag detected by anti-His; purified
T4 sequence (P75876 1-396 R103A): T1 sequence (P75876 1-396 R64A) with A64R, R103A
In words: ITC. It is filed as binding.

Assay [6] deals with T5, RlmI (Escherichia coli, UniProt P75876, G114A).
T5 construct: pCA24N or pGEX4T-1 plasmid; His tag detected by anti-His; purified
T5 sequence (P75876 1-396 G114A): T1 sequence (P75876 1-396 R64A) with A64R, G114A
In words: ITC. It is filed as binding.

Another assay concerns the target T6, RlmE (Escherichia coli, UniProt P0C0R7).
T6 construct: pCA24N or pGEX4T-1 plasmid; purified
T6 sequence (P0C0R7 1-209): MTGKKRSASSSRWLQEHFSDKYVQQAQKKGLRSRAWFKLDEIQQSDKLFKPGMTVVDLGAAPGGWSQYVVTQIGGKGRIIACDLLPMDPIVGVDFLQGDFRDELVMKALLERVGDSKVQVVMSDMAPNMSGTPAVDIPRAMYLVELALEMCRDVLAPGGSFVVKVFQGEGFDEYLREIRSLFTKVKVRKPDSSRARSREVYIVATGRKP
In words: in vitro rRNA methylation, HPLC. It is filed as biochemical.

What is called Kd is the concentration at which binding is half-saturated. Low readings indicate higher affinity, high ones lower affinity. Usually inhibition stands for the change of the read-out against control, counted positive when it falls. Read a low inhibition as little suppression. `Nc1nc2c(ncn2[C@@H]2O[C@@H]3CO[P@](=O)(O)O[C@H]4[C@@H](O)[C@H](n5cnc6c(=O)[nH]c(N)nc65)O[C@@H]4CO[P@](=O)(O)O[C@H]3[C@H]2O)c(=O)[nH]1` [c-di-GMP]: the Kd was determined as 102 µM on RlmI [1]; 1.3 µM at RlmI [2]; 401 µM on RlmI [3]; 76.5 µM at RlmI [5]; 149 µM at RlmI [6]. Moreover, the inhibition at 5 µM against RlmI [4] was 49%; against RlmE, 31%.

For the origin of these results see publication PMC11894153, “c-di-GMP inhibits rRNA methylation and impairs ribosome assembly in the presence of kanamycin” (EMBO Reports, 2025).
